Reference: the supplement of paper PMC10307832

What was measured:
Assay in all cases: relative viability (nuclei count vs DMSO), 5 days (fraction); higher = more cells survive
[1] = compound: CCCS(=O)(=O)Nc1ccc(F)c(C(=O)c2c[nH]c3ncc(-c4ccc(Cl)cc4)cc23)c1F [Vemurafenib] + CC(=O)c1c(C)c2cnc(Nc3ccc(N4CCNCC4)cn3)nc2n(C2CCCC2)c1=O [Palbociclib] (partner 0.5 µM)
How it was run: (§1)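 Five library-drug doses in √10 steps were combined with a fixed anchor-drug dose, or a single drug was given alone, by pin tool to lung cancer cell lines in 1536-well plates the day after seeding. Nuclei were stained and counted after 5 days. Relative viability is the nuclei count in treated wells over that in vehicle wells, taken as the median of duplicate plates.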

Alpelisib + Pictilisib = compound: Cc1nc(NC(=O)N2CCC[C@H]2C(N)=O)sc1-c1ccnc(C(C)(C)C(F)(F)F)c1 [Alpelisib] + CS(=O)(=O)N1CCN(Cc2cc3nc(-c4cccc5[nH]ncc45)nc(N4CCOCC4)c3s2)CC1 [Pictilisib] (partner 1 µM)
How it was run: as §1

Alpelisib + Linsitinib = compound: Cc1nc(NC(=O)N2CCC[C@H]2C(N)=O)sc1-c1ccnc(C(C)(C)C(F)(F)F)c1 [Alpelisib] + C[C@]1(O)C[C@@H](c2nc(-c3ccc4ccc(-c5ccccc5)nc4c3)c3c(N)nccn32)C1 [Linsitinib] (partner 1 µM)
How it was run: as §1

Alpelisib + Dasatinib = compound: Cc1nc(NC(=O)N2CCC[C@H]2C(N)=O)sc1-c1ccnc(C(C)(C)C(F)(F)F)c1 [Alpelisib] + Cc1nc(Nc2ncc(C(=O)Nc3c(C)cccc3Cl)s2)cc(N2CCN(CCO)CC2)n1 [Dasatinib] (partner 0.075 µM)
How it was run: as §1

Cell Line	relative viability ([1]; first compound 0.03162 µM)	relative viability ([1]; first compound 0.1 µM)	relative viability ([1]; first compound 1 µM)	relative viability (Alpelisib + Pictilisib; first compound 0.04 µM)	relative viability (Alpelisib + Pictilisib; first compound 0.1265 µM)	relative viability (Alpelisib + Pictilisib; first compound 0.4 µM)	relative viability (Alpelisib + Pictilisib; first compound 1.265 µM)	relative viability (Alpelisib + Pictilisib; first compound 4 µM)	relative viability (Alpelisib + Linsitinib; first compound 0.04 µM)	relative viability (Alpelisib + Linsitinib; first compound 0.1265 µM)	relative viability (Alpelisib + Linsitinib; first compound 0.4 µM)	relative viability (Alpelisib + Linsitinib; first compound 1.265 µM)	relative viability (Alpelisib + Linsitinib; first compound 4 µM)	relative viability (Alpelisib + Dasatinib; first compound 0.04 µM)	relative viability (Alpelisib + Dasatinib; first compound 0.1265 µM)	relative viability (Alpelisib + Dasatinib; first compound 0.4 µM)	relative viability (Alpelisib + Dasatinib; first compound 1.265 µM)	relative viability (Alpelisib + Dasatinib; first compound 4 µM)	relative viability ([1]; first compound 0.3162 µM)
HCC-366	0.359	0.332	0.321	0.151	0.137	0.196	0.11	0.222	0.716	0.519	0.375	0.327	0.152	0.556	0.596	0.427	0.34	0.207	–
HCC-827	0.413	–	0.511	0.887	1.18	0.933	0.973	0.651	0.942	0.979	1.04	0.925	0.924	0.378	0.427	0.296	0.234	0.233	0.509
HOP-62	0.436	0.437	0.396	1.06	0.698	0.988	0.586	0.727	0.801	0.959	1.16	0.976	0.922	0.608	0.598	0.755	0.539	0.531	0.371
IA-LM	–	–	–	0.265	0.412	0.432	0.335	0.327	0.565	0.424	0.829	0.616	0.493	–	–	–	–	–	–
LC-2-ad	0.449	0.466	0.442	0.443	0.435	0.434	0.296	0.415	0.766	0.798	0.839	0.724	0.66	0.596	0.448	0.63	0.23	0.225	0.481
LCLC-97TM1	–	0.22	0.207	0.178	0.175	0.179	0.195	0.21	0.167	0.167	0.192	0.157	0.16	0.843	0.75	0.855	0.641	0.566	0.22
LCLC-103H	0.426	0.448	0.467	0.721	0.695	0.506	0.56	0.526	1.07	1.19	1.25	0.892	0.76	0.45	0.442	0.468	0.418	0.359	0.501
LK-2	0.621	0.599	0.311	0.531	0.571	0.643	0.524	0.578	0.385	0.574	0.549	0.46	0.687	0.327	0.287	0.257	0.185	0.186	0.602
LOU-NH91	0.515	0.497	0.551	0.537	0.504	0.559	0.52	0.457	0.989	0.828	0.782	0.735	0.653	0.478	0.482	0.482	0.452	0.34	0.536
LU99A	0.386	0.401	0.373	0.293	0.278	0.374	0.296	0.251	0.501	0.477	0.548	0.427	0.311	0.446	0.482	0.554	0.409	0.379	–
LXF-289	0.548	0.526	0.667	0.762	0.805	0.855	0.707	0.733	0.935	0.952	1.05	0.952	0.996	0.257	0.164	0.177	0.121	0.114	0.601
NCI-H522	0.822	0.743	1.26	–	–	–	–	–	–	–	–	–	–	0.952	0.772	0.786	0.709	0.647	0.857
NCI-H596	–	–	–	0.404	0.413	0.362	0.399	0.358	1.05	1.03	0.867	0.555	0.477	0.564	0.67	0.578	0.337	0.385	–
NCI-H1299	–	–	–	0.871	0.76	0.793	0.796	0.599	0.975	0.984	1.14	0.866	0.843	–	–	–	–	–	–
NCI-H1563	–	–	–	0.647	0.734	0.67	0.613	0.676	1.18	1.19	1.2	1.06	1.19	0.474	0.395	0.434	0.386	0.375	–
NCI-H1623	–	–	–	–	–	–	–	–	–	–	–	–	–	0.528	0.496	0.513	0.414	0.353	–
NCI-H1648	–	0.277	0.294	–	–	–	–	–	–	–	–	–	–	–	–	–	–	–	0.341
NCI-H1650	0.314	0.255	0.351	0.625	0.488	0.631	0.595	0.494	–	–	–	–	–	0.316	0.309	0.322	0.257	0.271	0.356
NCI-H1703	–	–	–	0.254	0.249	0.227	0.235	0.26	0.899	0.631	0.661	0.438	0.354	–	–	–	–	–	–
NCI-H2170	0.403	–	0.344	0.322	0.328	0.331	0.343	0.283	–	–	–	–	–	0.535	0.519	0.506	0.483	0.396	0.396
NCI-H2342	0.512	0.461	0.548	–	–	–	–	–	–	–	–	–	–	0.327	0.313	0.306	0.269	0.272	0.541
SW 900	0.563	0.43	0.488	–	–	–	–	–	–	–	–	–	–	0.534	0.58	0.612	0.578	0.518	0.549
